19 compounds from US20240059703A1 (AMGEN INC., priority 2021, published 2024) can be followed below.

Each structure is given as a SMILES string.

Assay [1] has as its system A549 (human lung carcinoma) cells. As to the kind of experiment: Cell Viability Assay (CellTiter-Glo), A549. It counts as cell-based. Conditions: Homo sapiens, A549, 72 h. A digest of the protocol:
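Seeding at 1.67E+04 cells/mL is followed by overnight attachment at 37° C., 5% CO2. Serially diluted compound is added for 72 h. Viability is read by CellTiter-Glo luminescence, scaled to DMSO and fitted (4-parameter logistic) to give IC50.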

A further assay deals with KRAS G12C (Homo sapiens (Human), UniProt P01116, C118A/G12C). The experiment in a line: 2 h coupled exchange assay. The format is biochemical. Particulars: Avg 2 h Coupled exchange IC50, 2 h compound pre-incubation. The protocol:
The term “2 h coupled exchange assay” or “20 h coupled exchange assay” as used herein refers to the assay described in the Section entitled “BIOLOGICAL EVALUATION.”

Assay [2] deals with MIA PaCa-2 (human pancreatic carcinoma) cells. The experiment in a line: Cell Viability Assay (CellTiter-Glo), MIA PaCa-2. Particulars: Homo sapiens, MIA PaCa-2, 72 h. It counts as cell-based. The protocol:
Serially-diluted compound or DMSO was added to the cells, and plates were incubated at 37° C., 5% CO2 for 72 h. Cell viability was measured using a CellTiter-Glo® Luminescent Cell Viability Assay kit (Promega) according to the manufacturer's protocol. The luminescence signal of treated samples was normalized to DMSO control, and data were analyzed using a 4-parameter logistic model to calculate IC50 values.

Sequence of KRAS G12C (P01116 other isoform, or with tags, fused parts or gaps G12C/C118A): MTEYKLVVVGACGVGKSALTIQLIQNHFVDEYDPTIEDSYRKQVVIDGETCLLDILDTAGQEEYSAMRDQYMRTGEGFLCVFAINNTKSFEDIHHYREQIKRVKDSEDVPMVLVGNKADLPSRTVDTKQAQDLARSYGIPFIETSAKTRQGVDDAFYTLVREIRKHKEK

As to `C=CC(=O)N1CC2(CCN(c3nc4c(c(-c5ccc(F)c6sc(N)nc56)c3C#N)COC(C)(C)C4)C2)C1` [Example 14-56, 4-(2-amino-7-fluoro-1,3-benzothiazol-4-yl)-7,7-dimethyl-2-(2-(2-propenoyl)-2,6-diazaspiro[3.4]octan-6-yl)-7,8-dihydro-5H-pyrano[4,3-b]pyridine-3-carbonitrile], the IC50 was above 5000 nM in assay [1], 93 nM at KRAS G12C and 135 nM in assay [2].

With `C=CC(=O)N1CC2(CCN(c3nc4c(c(-c5cc(O)cc6ccccc56)c3F)COC(C)(C)C4)C2)C1` [Example 14-68, 1-(6-(3-fluoro-4-(3-hydroxy-1-naphthalenyl)-7,7-dimethyl-7,8-dihydro-5H-pyrano[4,3-b]pyridin-2-yl)-2,6-diazaspiro[3.4]octan-2-yl)-2-propen-1-one], the 50% inhibitory concentration (IC50) in assay [1] was above 5000 nM; against KRAS G12C, 50 nM; in assay [2] it was 91 nM.

As for `C=CC(=O)N1CC2(CCN(c3nc4c(c(-c5c(C)ccc6[nH]ncc56)c3F)C[C@H]3C[C@@H]4C3(C)C)C2)C1` [Example 14-72, 1-(6-((1R,9R)-5-fluoro-10,10-dimethyl-6-(5-methyl-1H-indazol-4-yl)-3-azatricyclo[7.1.1.0^2,7]undeca-2,4,6-trien-4-yl)-2,6-diazaspiro[3.4]octan-2-yl)-2-propen-1-one], the 50% inhibitory concentration (IC50) in assay [1] was above 5000 nM; against KRAS G12C, 30 nM; in assay [2], 24 nM.

With `C=CC(=O)N1CC2(CCN(c3nc4c(c(-c5c(C)ccc6cn[nH]c56)c3C#N)COC(C)(C)C4)C2)C1` [Example 14-80, 7,7-dimethyl-4-(6-methyl-1H-indazol-7-yl)-2-(2-(2-propenoyl)-2,6-diazaspiro[3.4]octan-6-yl)-7,8-dihydro-5H-pyrano[4,3-b]pyridine-3-carbonitrile], the concentration for half-maximal inhibition (IC50) in assay [1] was above 5000 nM; against KRAS G12C, 89 nM; in assay [2], 1190 nM.

With `C=CC(=O)N1CC2(CCN(c3nc4c(c(-c5cc(O)c(F)cc5Cl)c3C#N)C[C@H]3C[C@@H]4C3(C)C)C2)C1` [Example 14-84, (1R,9R)-6-(2-chloro-4-fluoro-5-hydroxyphenyl)-10,10-dimethyl-4-(2-(2-propenoyl)-2,6-diazaspiro[3.4]octan-6-yl)-3-azatricyclo[7.1.1.0^2,7]undeca-2,4,6-triene-5-carbonitrile], the IC50 was above 5000 nM in assay [1], 144 nM against KRAS G12C and 2150 nM in assay [2].

Consider `C=CC(=O)N1CC2(CCN(c3nc4c(c(-c5cc(O)ccc5C(F)(F)F)c3C#N)COC(C)(C)C4)C2)C1` [Example 14-86, 4-(5-hydroxy-2-(trifluoromethyl)phenyl)-7,7-dimethyl-2-(2-(2-propenoyl)-2,6-diazaspiro[3.4]octan-6-yl)-7,8-dihydro-5H-pyrano[4,3-b]pyridine-3-carbonitrile], for which the 50% inhibitory concentration (IC50) in assay [1] is above 5000 nM; against KRAS G12C, 108 nM; in assay [2], 418 nM.

Consider `C=CC(=O)N1CC2(CCN(c3nc4c(c(-c5c(C)c(Cl)cc6cnn(C)c56)c3C)COC(C)(C)C4)C2)C1` [Example 14-87, 1-(6-(4-(5-chloro-1,6-dimethyl-1H-indazol-7-yl)-3,7,7-trimethyl-7,8-dihydro-5H-pyrano[4,3-b]pyridin-2-yl)-2,6-diazaspiro[3.4]octan-2-yl)-2-propen-1-one], for which the concentration for half-maximal inhibition (IC50) is above 5000 nM in assay [1], 39 nM at KRAS G12C and 68 nM in assay [2].

With `C=CC(=O)N1CC2(CCN(c3nc4c(c(-c5c(C)c(Cl)cc6cn[nH]c56)c3C#N)COC(C)(C)C4)C2)C1` [Example 14-91, 4-(5-chloro-6-methyl-1H-indazol-7-yl)-7,7-dimethyl-2-(2-(2-propenoyl)-2,6-diazaspiro[3.4]octan-6-yl)-7,8-dihydro-5H-pyrano[4,3-b]pyridine-3-carbonitrile], the IC50 in assay [1] is above 5000 nM; at KRAS G12C, 16 nM; in assay [2] it was 20 nM.

Regarding `C=CC(=O)N1CC2(CCN(c3nc4c(c(-c5c(C)c(Cl)cc6cnn(C)c56)c3C#N)COC(C)(C)C4)C2)C1` [Example 14-92, 4-(5-chloro-1,6-dimethyl-1H-indazol-7-yl)-7,7-dimethyl-2-(2-(2-propenoyl)-2,6-diazaspiro[3.4]octan-6-yl)-7,8-dihydro-5H-pyrano[4,3-b]pyridine-3-carbonitrile], the 50% inhibitory concentration (IC50) is above 5000 nM in assay [1], 28 nM against KRAS G12C and 9 nM in assay [2].

On to `C=CC(=O)N1CC2(CCN(c3nc4c(c(-c5ccc(F)cc5F)c3C)CC[C@@H](c3c(C)cnn3C)C4)C2)C1` [Example 14-93, 1-(6-((7R)-4-(2,4-difluorophenyl)-7-(1,4-dimethyl-1H-pyrazol-5-yl)-3-methyl-5,6,7,8-tetrahydro-2-quinolinyl)-2,6-diazaspiro[3.4]octan-2-yl)-2-propen-1-one], for which the half-maximal inhibitory concentration (IC50) in assay [1] amounted to 12400 nM; at KRAS G12C, 134 nM; in assay [2], 352 nM.

Regarding `C=CC(=O)N1CC2(CCN(c3nc4c(c(-c5cccc(F)c5O)c3C)CC[C@@H](c3c(C)cnn3C)C4)C2)C1` [Example 14-94, 1-(6-((7R)-7-(1,4-dimethyl-1H-pyrazol-5-yl)-4-(3-fluoro-2-hydroxyphenyl)-3-methyl-5,6,7,8-tetrahydro-2-quinolinyl)-2,6-diazaspiro[3.4]octan-2-yl)-2-propen-1-one], the concentration for half-maximal inhibition (IC50) in assay [1] came out at 14400 nM; against KRAS G12C, 228 nM; in assay [2] it was 118 nM.

`C=CC(=O)N1CC2(CCN(c3nc4c(c(-c5cccc(F)c5O)c3C)CC[C@H](c3c(C)cnn3C)C4)C2)C1` [Example 14-95, 1-(6-((7S)-7-(1,4-dimethyl-1H-pyrazol-5-yl)-4-(3-fluoro-2-hydroxyphenyl)-3-methyl-5,6,7,8-tetrahydro-2-quinolinyl)-2,6-diazaspiro[3,4]octan-2-yl)-2-propen-1-one]: the half-inhibitory concentration (IC50) in assay [1] worked out at 15400 nM; against KRAS G12C, 687 nM; in assay [2] it was 3350 nM.

With `C=CC(=O)N1CC2(CCN(c3nc4c(c(-c5ccccc5Cl)c3C)CCC(c3c(C)cnn3C)C4)C2)C1` [Example 14-96, 1-(6-((7R)-4-(2-chlorophenyl)-7-(1,4-dimethyl-1H-pyrazol-5-yl)-3-methyl-5,6,7,8-tetrahydro-2-quinolinyl)-2,6-diazaspiro[3.4]octan-2-yl)-2-propen-1-one|1-(6-((7S)-4-(2-chlorophenyl)-7-(1,4-dimethyl-1H-pyrazol-5-yl)-3-methyl-5,6,7,8-tetrahydro-2-quinolinyl)-2,6-diazaspiro[3.4]octan-2-yl)-2-propen-1-one], the IC50 in assay [1] stood at 13400 nM; against KRAS G12C, 546 nM; in assay [2], 852 nM.

In the case of `C=CC(=O)N1CC2(CCN(c3cc4c(c(-c5c(C)ccc6[nH]ncc56)c3C)COCC4)C2)C1` [Example 14-104, 1-(6-(7-methyl-8-(5-methyl-1H-indazol-4-yl)-3,4-dihydro-1H-2-benzopyran-6-yl)-2,6-diazaspiro[3.4]octan-2-yl)-2-propen-1-one], the 50% inhibitory concentration (IC50) in assay [1] was above 5000 nM; at KRAS G12C it was 242 nM; in assay [2] it was 210 nM.

On to `C=CC(=O)N1CC2(CCN(c3nc4cc(-c5ccnn5C)ccc4c(-c4c(C)ccc5[nH]ncc45)c3C#N)C2)C1` [Example 15-1, 4-(5-methyl-1H-indazol-4-yl)-7-(1-methyl-1H-pyrazol-5-yl)-2-(2-(2-propenoyl)-2,6-diazaspiro[3.4]octan-6-yl)-3-quinolinecarbonitrile], for which the half-maximal inhibitory concentration (IC50) in assay [1] was 3310 nM; against KRAS G12C, 31 nM; in assay [2] it was 144 nM.

For `C=CC(=O)N1CC2(CCN(c3nc4cc(-c5scnc5C)ccc4c(-c4c(C)ccc5[nH]ncc45)c3C)C2)C1` [Example 15-3, 1-(6-(3-methyl-4-(5-methyl-1H-indazol-4-yl)-7-(4-methyl-1,3-thiazol-5-yl)-2-quinolinyl)-2,6-diazaspiro[3.4]octan-2-yl)-2-propen-1-one], the half-inhibitory concentration (IC50) is above 5000 nM in assay [1], 62 nM against KRAS G12C and 1120 nM in assay [2].

With `C=CC(=O)N1CC2(CCN(c3nc4cc(-c5nccn5C)ccc4c(-c4ccccc4Cl)c3C#N)C2)C1` [Example 15-7, 4-(2-chlorophenyl)-7-(1-methyl-1H-imidazol-2-yl)-2-(2-(2-propenoyl)-2,6-diazaspiro[3.4]octan-6-yl)-3-quinolinecarbonitrile], the half-maximal inhibitory concentration (IC50) turned out to be 4140 nM in assay [1], 115 nM against KRAS G12C and 966 nM in assay [2].

With `C=CC(=O)N1CC2(CCN(c3nc4cc(-c5ccnn5C)ccc4c(-c4ccccc4Cl)c3C)C2)C1` [Example 16-1, 1-(6-(4-(2-chlorophenyl)-3-methyl-7-(1-methyl-1H-pyrazol-5-yl)quinolin-2-yl)-2,6-diazaspiro[3.4]octan-2-yl)prop-2-en-1-one], the IC50 in assay [1] was above 5000 nM; against KRAS G12C, 280 nM; in assay [2], above 5000 nM.

On to `C=CC(=O)N1CC2(CCN(c3nc4cc(-c5ccnn5C)ccc4c(-c4cc(O)ccc4Cl)c3C)C2)C1` [Example 16-9, 1-(6-(4-(2-chloro-5-hydroxyphenyl)-3-methyl-7-(1-methyl-1H-pyrazol-5-yl)-2-quinolinyl)-2,6-diazaspiro[3.4]octan-2-yl)-2-propen-1-one], for which the IC50 in assay [1] is above 5000 nM; against KRAS G12C, 60 nM; in assay [2], 1330 nM.
